What all share (format): binding
For assay [1], the target named is T1, lysophospholipase-like 1 (LYPLAL1) (Homo sapiens, UniProt Q5VWZ2).
T1 construct: LYPLAL1 in pDEST15, expressed in E. coli BL21 (DE3)
T1 sequence (Q5VWZ2 2-237): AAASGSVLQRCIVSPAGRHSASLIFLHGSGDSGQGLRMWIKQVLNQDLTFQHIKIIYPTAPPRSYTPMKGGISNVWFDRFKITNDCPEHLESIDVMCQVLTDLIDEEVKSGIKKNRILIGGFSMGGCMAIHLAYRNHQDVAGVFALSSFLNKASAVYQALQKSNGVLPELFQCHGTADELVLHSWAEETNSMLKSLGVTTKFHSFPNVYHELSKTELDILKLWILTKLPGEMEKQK
Put plainly: SPR (Biacore 8K, CM5 chip, immobilized protein); also SILAC AP-MS from HEK293T lysate. For orientation: Surface plasmon resonance follows binding to a sensor surface in real time, without labels.

Assay [2] addresses T2, T-complex protein 1 subunit alpha (TCP1) (Homo sapiens, UniProt P17987).
T2 construct: C-terminal Flag-His6 tag fused TCP1, expressed in E. coli BL21 (DE3)
The assay is described as above.

Assay [3] addresses T3, cell cycle and apoptosis regulator protein 2 (CCAR2) (Homo sapiens, UniProt Q8N163).
T3 construct: C-terminal Flag tag fused CCAR2 in pGEX-4T-1 (GST-tagged), expressed in E. coli BL21 (DE3)
The description is as above.

Assay [4] deals with T4, T-complex protein 1 subunit alpha (TCP1) (Homo sapiens, UniProt P17987, D88A).
T4 construct: TCP1 mutant D88A
T4 sequence (P17987 whole entry D88A, one chain of several): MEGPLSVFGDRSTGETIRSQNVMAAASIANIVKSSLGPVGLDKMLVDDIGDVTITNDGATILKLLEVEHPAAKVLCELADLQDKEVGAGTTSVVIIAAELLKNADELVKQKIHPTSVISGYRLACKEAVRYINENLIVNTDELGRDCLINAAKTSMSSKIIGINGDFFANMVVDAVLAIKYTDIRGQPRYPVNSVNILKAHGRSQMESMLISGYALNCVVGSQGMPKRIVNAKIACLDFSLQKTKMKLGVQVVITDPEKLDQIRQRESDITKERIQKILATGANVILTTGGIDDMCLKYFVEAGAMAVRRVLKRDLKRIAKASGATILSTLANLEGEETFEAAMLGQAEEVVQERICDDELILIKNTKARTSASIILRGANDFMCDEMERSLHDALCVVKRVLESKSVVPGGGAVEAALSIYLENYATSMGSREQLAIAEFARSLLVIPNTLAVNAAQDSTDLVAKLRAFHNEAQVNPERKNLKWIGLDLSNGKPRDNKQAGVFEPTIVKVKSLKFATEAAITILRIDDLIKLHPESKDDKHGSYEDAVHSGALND
Put plainly: SPR on mutant TCP1.

T3 sequence (Q8N163 whole entry, the tested form may be a part): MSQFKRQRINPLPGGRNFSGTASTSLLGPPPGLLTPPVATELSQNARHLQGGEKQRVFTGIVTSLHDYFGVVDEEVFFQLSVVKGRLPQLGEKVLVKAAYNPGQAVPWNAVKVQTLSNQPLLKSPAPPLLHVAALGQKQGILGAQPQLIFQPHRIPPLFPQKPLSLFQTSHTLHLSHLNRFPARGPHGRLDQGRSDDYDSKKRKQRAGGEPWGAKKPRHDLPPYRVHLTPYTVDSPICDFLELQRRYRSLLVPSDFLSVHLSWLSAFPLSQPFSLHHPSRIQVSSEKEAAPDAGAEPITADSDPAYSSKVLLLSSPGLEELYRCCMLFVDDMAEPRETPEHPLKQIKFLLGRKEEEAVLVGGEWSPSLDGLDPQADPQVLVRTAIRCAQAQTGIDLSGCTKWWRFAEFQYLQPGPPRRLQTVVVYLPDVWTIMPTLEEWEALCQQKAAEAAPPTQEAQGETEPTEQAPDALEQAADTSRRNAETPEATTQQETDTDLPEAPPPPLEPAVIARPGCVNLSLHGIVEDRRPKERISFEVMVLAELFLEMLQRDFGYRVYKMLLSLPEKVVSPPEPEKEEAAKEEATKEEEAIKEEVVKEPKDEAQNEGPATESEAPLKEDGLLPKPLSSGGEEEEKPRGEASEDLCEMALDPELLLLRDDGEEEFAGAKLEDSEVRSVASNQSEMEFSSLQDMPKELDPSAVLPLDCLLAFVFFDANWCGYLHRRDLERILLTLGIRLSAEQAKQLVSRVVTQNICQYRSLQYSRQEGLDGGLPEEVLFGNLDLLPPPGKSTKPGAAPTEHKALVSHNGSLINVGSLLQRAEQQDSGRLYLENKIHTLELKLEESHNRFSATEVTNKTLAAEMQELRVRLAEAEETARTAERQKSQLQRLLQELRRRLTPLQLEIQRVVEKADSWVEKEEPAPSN
T2 sequence (P17987 whole entry, the tested form may be a part, one chain of several): as the sequence (P17987 whole entry D88A, one chain of several) above, with A88D counted along it

On to `O=C(CCCC[C@@H]1SC[C@@H]2NC(=O)N[C@@H]21)NCCOCCOCCOCCOCCOCc1cn([C@@H](CC(=O)N2CCn3c(nnc3C(F)(F)F)C2)Cc2cc(F)c(F)cc2F)nn1` [biotin-PEG5-sitagliptin], for which the Kd (in general, the constant that tells how readily two partners part at equilibrium) in assay [1] turned out to be 1.44 mM; in assay [2], 50.1 µM; in assay [3] it was 441 µM; in assay [4] it was 494 µM.

Source of the values: paper PMC9827809, “Identification of sitagliptin binding proteins by affinity purification mass spectrometry” (Acta Biochimica et Biophysica Sinica, 2022).
